Reference: patent US20230323279A1, “MUTANT ALGAE, METHOD OF PREPARATION AND APPLICATION THEREOF” (Reliance Industries Limited, priority 2022, published 2023)

What was measured:
Type in all cases: cell-based, Picochlorum
[1] = system: mutant algae (NCAR-1 and NCAR-2); test: Growth of algae culture (OD at 750 nm); conditions: for growth of mutant algae as compared to wild type of the algae: about 2 ppm and about 5 ppm, FIGS. 7-9
Text: (§1) FIG. 4 A) illustrates a plot describing comparative growth of wild type of the algae and mutant algae (NCAR-1 and NCAR-2) at different concentrations of Niclosamide; and B) depicts an image of cultures showing no growth of wild type algae (WT) and growth of mutant algae (NCAR-1 and NCAR-2) at 10 ppm of Niclosamide, respectively.

[2] = system: mutant algae (NCAR-1 and NCAR-2); test: Volumetric productivity (AFDW mg/L/day); conditions: about 2 ppm and about 5 ppm; for volumetric productivity of mutant algae as compared to wild type of the algae: FIGS. 10-12
Text: The term ‘productivity’ as used herein refers to amount of product the algae can produce under defined conditions. Productivity can be measured in grams of dry weight of algae. Alternatively, productivity can be measured in terms of the rate of production of a desirable product or product(s) such as lipid, protein, carbohydrate and/or any other biomolecule produced by the algae. The term ‘volumetric productivity’ refers to increase in biomass weight of algae/L/day.
Thus, clearly establishing that the mutant algae is resistant to salicylanilide based drug, such as Niclosamide as compared to wild type of the algae.

WT cells = test: Killing of WT cells on EMS exposure (mutagenesis); conditions: 0.6 M, about 1 hours, about 1 × 10^8 /ml cells
Protocol: About 1 × 10^8 /ml WT cells were treated with 0.6 M EMS for about 1 hours. […] The alive cells were allowed to recover in dark overnight and then in low light for about a week. Upon recovering the mutant algae population was exposed to about 0.5 ppm of Niclosamide and enriched in presence of Niclosamide for several generations. As the growth rate in the presence of Niclosamide increased, the selection pressure was increased to about 1 ppm and then to about 2 ppm of Niclosamide, respectively. The mutant pool was grown in presence of about 2 ppm Niclosamide (for about 300 generations, about 1 year) till the growth rates became constant. At this stage, FACS sorting of the Niclosamide resistant mutant pool was performed to get individual Niclosamide resistant mutant algae. About 100 individual mutants were isolated and were further checked for growth in the presence of about 2 ppm Niclosamide. The list was narrowed down to about 10 stable mutants after about 2 rounds of growth screening. Finally, after about 10 rounds of repeated growth screening in the presence of about 2 ppm Niclosamide, stable mutant algae (NCAR-1 & NCAR-2) were selected, based on the stable drug resistant phenotype and consistent growth & productivity.

mutant algae NCAR-1 = test: Total intracellular ATP, bioluminescence (luciferase) assay
Protocol: (§2) Total intracellular ATP levels in wild type algae and the mutant algae were measured using molecular probes bioluminescence assay kit. The assay is based on luciferase’s requirement for ATP in producing light (emission maximum of about 560 nm at pH 7.8) from the reaction
(§3) Niclosamide was added to mid log cells (OD750 at about 0.3) of both wild type algae and mutant algae and samples (OD = 10^8 cells) were collected after about 12 hours for ATP measurement. About 1 ppm of Oligomycin A (inhibitor of ATP synthase) was used as positive control to inhibit ATP synthesis. intracellular ATP concentration in mutant algae and wild type of the algae in presence of Niclosamide was described in Table 3.

mutant algae NCAR-2 = test: as above
Protocol: as §2, §3

wild type algae (WT) = test: as above; conditions: about 12 hours; for ATP conc. / bioluminescence reading, Average / bioluminescence reading, replicate 1 / bioluminescence reading, replicate 2: 1 ppm drug; for ATP depletion / lower ATP levels: about 1 ppm drug
Protocol: as §2, §3

[3] = system: wild type of the algae (WT); test: Growth of algae culture (OD at 750 nm)
Text: FIG. 1 A) illustrates a plot describing no growth of wild type of the algae (WT) in presence of Niclosamide (OD at 750 nm); and B) depicts an image of cultures showing no growth of wild type algae in presence of Niclosamide.
as §1

[4] = system: mutant algae (NCAR-1 and NCAR-2); test: Photosynthetic efficiency/health; conditions: about 1 ppm, about 2 ppm and about 5 ppm, FIG. 6
Text: FIG. 6 illustrate plots describing photosynthetic efficiency/health of- A) wild type of the algae (WT); B) mutant algae (NCAR-1); and C) mutant algae (NCAR-2) at different concentrations of Niclosamide (last day is 7th Day).
The improved photosynthetic efficiency of the mutant algae explicitly implies resistance of the mutant algae to salicylanilide based drug, such as Niclosamide and that the wild type of the algae is not resistant to the salicylanilide based drug.

[5] = NCAR-1, 1 ppm drug, about 12 hours
[6] = NCAR-2, 1 ppm drug, about 12 hours

Compound	growth of mutant algae as compared to wild type of the algae [1]	volumetric productivity of mutant algae as compared to wild type of the algae [2]	ATP conc. (wild type algae (WT))	bioluminescence reading, Average (wild type algae (WT))	bioluminescence reading, replicate 1 (wild type algae (WT))	bioluminescence reading, replicate 2 (wild type algae (WT))	ATP depletion / lower ATP levels (wild type algae (WT))	further results
Cc1cc(C(C#N)c2ccc(Cl)cc2)c(Cl)cc1NC(=O)c1cc(I)cc(I)c1O (stereo not shown) [Closantel, closantel]	improved growth	improved volumetric productivity	–	–	–	–	–	–
CCOS(C)(=O)=O [EMS, ethyl methanesulfonate]	–	–	–	–	–	–	–	killing of the WT cells (WT cells): about 50%
O=C(Nc1ccc([N+](=O)[O-])cc1Cl)c1cc(Cl)ccc1O [Niclosamide, niclosamide]	improved growth	improved volumetric productivity	~ 28.80 nM	174.5	204	145	about 90%	ATP conc. (mutant algae NCAR-1; [5]): 125.68 nM; bioluminescence reading, Average (mutant algae NCAR-1; [5]): 761.5; bioluminescence reading, replicate 1 (mutant algae NCAR-1; [5]): 835; bioluminescence reading, replicate 2 (mutant algae NCAR-1; [5]): 688; ATP depletion (mutant algae NCAR-1; NCAR-1, after about 12 hours of drug addition): about 50%; ATP conc. (mutant algae NCAR-2; [6]): 138.55 nM; bioluminescence reading, Average (mutant algae NCAR-2; [6]): 839.5; bioluminescence reading, replicate 1 (mutant algae NCAR-2; [6]): 890; bioluminescence reading, replicate 2 (mutant algae NCAR-2; [6]): 789; ATP depletion (mutant algae NCAR-2; NCAR-2, after about 12 hours of drug addition): about 50%; growth of wild type of the algae ([3]; 10 ppm, FIG. 4B): no growth; growth of wild type of the algae (OD at 750 nm) ([3]; in presence of drug, FIG. 1): no growth; growth of mutant algae ([1]; 10 ppm, FIG. 4B): evident growth; volumetric productivity of mutant algae ([2]; about 1 ppm, FIG. 5): equal to or greater than the volumetric productivity of the wild type of the algae in absence of Niclosamide; photosynthetic efficiency/health of mutant algae as compared to wild type of the algae [4]: improved photosynthetic efficiency/health
CC[C@H]1/C=C/C=C/C[C@@H](C)[C@H](O)[C@@](C)(O)C(=O)[C@@H](C)[C@H](O)[C@@H](C)C(=O)[C@@H](C)[C@H](O)[C@@H](C)/C=C/C(=O)O[C@@H]2[C@H](C)[C@H](CC1)O[C@]1(CC[C@H](C)[C@H](C[C@@H](C)O)O1)[C@H]2C [Oligomycin, Oligomycin A]	–	–	178.49 nM	1081.5	1181	982	about 40%	–
O=C(Nc1cc(Cl)cc(Cl)c1O)c1c(O)c(Cl)cc(Cl)c1Cl [Oxyclozanide, oxyclozanide]	improved growth	improved volumetric productivity	–	–	–	–	–	–
O=C(Nc1ccc(Oc2ccc(Cl)cc2)c(Cl)c1)c1cc(I)cc(I)c1O [Rafoxanide, rafoxanide]	improved growth	improved volumetric productivity	–	–	–	–	–	–
